Patent US20120095211A1, “SUBSTITUTED PROLINE INHIBITORS OF HEPATITIS C VIRUS REPLICATION” (InterMune, Inc., priority 2010, published 2012)
Read-outs that look alike come from different tables or passages of the source.

Columns and labels:
[1] = rcm bond
hepatitis C replicon = hepatitis C replicon EC50 assay; type: cell-based, hepatitis C virus (HCV); conditions: Hepatitis C virus
Text: (§1) NS3-NS4 inhibition activity can be determined using known assay methods. For example, NS3/NS4 complexes may be formed and inhibitory concentrations of test compounds determined as described in U.S. Patent Application Publication Number 2007/0054842 paragraph numbers 1497-1509, which is incorporated herein by reference in its entirety. Similarly, hepatitis C replicon EC50 may be determined using known assay methods such as described in U.S. Patent Application Publication Number 2007/0054842 paragraph numbers 1510-1515, which is incorporated herein by reference in its entirety. Assays may be conducted at ambient temperature (23° C.) in assay buffer containing 50 mM Tris-HCl, pH 7.5, 15% glycerol, 0.6 mM Lauryldimethylamine Oxide (LDAO), 25 μM NS4A peptide, and 10 mM Dithiothreitol (DTT).

NS3/NS4 complexes = NS3/NS4 complexes (Hepatitis C virus genotype 1a, UniProt P27958); experiment: NS3/NS4 inhibition assay (inhibitory concentrations of test compounds); type: biochemical; conditions: NS3-NS4 activity; 23° C., pH 7.5, 25 μM NS4A peptide
Text: as §1

[2] = hepatitis C replicon, read-out: EC50

Chain of NS3/NS4 complexes (P27958 1658-1711): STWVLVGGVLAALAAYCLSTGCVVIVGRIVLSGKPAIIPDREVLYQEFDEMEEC
Chain of NS3/NS4 complexes (P27958 1027-1657): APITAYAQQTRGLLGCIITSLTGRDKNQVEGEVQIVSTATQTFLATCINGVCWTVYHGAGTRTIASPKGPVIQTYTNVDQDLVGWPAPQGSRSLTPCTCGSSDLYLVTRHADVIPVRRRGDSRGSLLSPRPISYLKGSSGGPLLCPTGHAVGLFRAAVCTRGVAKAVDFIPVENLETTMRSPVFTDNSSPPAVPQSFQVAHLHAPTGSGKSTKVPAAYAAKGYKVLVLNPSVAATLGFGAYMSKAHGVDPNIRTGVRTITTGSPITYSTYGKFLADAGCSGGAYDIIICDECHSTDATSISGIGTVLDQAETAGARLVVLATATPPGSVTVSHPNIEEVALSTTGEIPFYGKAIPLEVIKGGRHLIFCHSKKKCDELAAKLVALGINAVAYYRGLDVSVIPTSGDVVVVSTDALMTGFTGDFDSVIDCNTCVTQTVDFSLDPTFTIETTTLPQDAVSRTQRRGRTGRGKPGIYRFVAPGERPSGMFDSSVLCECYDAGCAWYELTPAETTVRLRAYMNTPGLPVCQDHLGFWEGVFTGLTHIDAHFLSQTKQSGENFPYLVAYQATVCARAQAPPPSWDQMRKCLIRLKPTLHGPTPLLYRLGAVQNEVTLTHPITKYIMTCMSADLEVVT

Compound | EC50 (hepatitis C replicon; [2]) | IC50 (NS3/NS4 complexes) | also measured
CC(C)n1c(O[C@H]2CN3C(=O)[C@@H](NC(=O)OC(C)(C)C)CCCCCC=C[C@@H]4C[C@@]4(C(=O)NS(=O)(=O)C4(C)CC4)NC(=O)[C@@H]3[C@@H]2C)nc2c(-c3nc(C4CCCCC4)cs3)cccc21 | – | – | ring closure, yield of all isomers ([1]; from C=CCCCCC[C@H](NC(=O)OC(C)(C)C)C(=O)N1C[C@H](Oc2nc3c(-c4nc(C5CCCCC5)cs4)cccc3n2C(C)C)[C@@H](C)[C@H]1C(=O)N[C@]1(C(=O)NS(=O)(=O)C2(C)CC2)C[C@H]1C=C, Zhan catalyst, toluene, 5.16 mM, 65.0 °C, 1.0 h): 53.9%
CCOC(=O)[C@@]12C[C@H]1C=CCCCCC[C@H](NC(=O)OC(C)(C)C)C(=O)N1C[C@H](Oc3cc(-c4nc(C(C)C)cs4)nc4c(C)c(OC)ccc34)[C@@H](C)[C@H]1C(=O)N2 | – | – | ring closure, yield of all isomers ([1]; from C=CCCCCC[C@H](NC(=O)OC(C)(C)C)C(=O)N1C[C@H](Oc2cc(-c3nc(C(C)C)cs3)nc3c(C)c(OC)ccc23)[C@@H](C)[C@H]1C(=O)N[C@]1(C(=O)OCC)C[C@H]1C=C, Zhan catalyst, toluene, 11.67 mM, 70.0 °C, 2.0 h): 75%
CCOC(=O)[C@@]12C[C@H]1C=CCCCCC[C@H](NC(=O)OC(C)(C)C)C(=O)N1C[C@H](Oc3nc4c(-c5nc(C6CCCCC6)cs5)cccc4n3C(C)C)[C@@H](C)[C@H]1C(=O)N2 | – | – | ring closure, yield of all isomers ([1]; from C=CCCCCC[C@H](NC(=O)OC(C)(C)C)C(=O)N1C[C@H](Oc2nc3c(-c4nc(C5CCCCC5)cs4)cccc3n2C(C)C)[C@@H](C)[C@H]1C(=O)N[C@]1(C(=O)OCC)C[C@H]1C=C, Hoveyda-Grubbs catalyst, 1,2-dichloroethane, 0.96 mM): 83%
CCOC(=O)[C@@]12C[C@H]1C=CCCCCC[C@H](NC(=O)OC(C)(C)C)C(=O)N1C[C@H](Oc3ncc(OC)c4ccc(Cl)cc34)[C@@H](C)[C@H]1C(=O)N2 | – | – | ring closure, yield of all isomers ([1]; from C=CCCCCC[C@H](NC(=O)OC(C)(C)C)C(=O)N1C[C@H](Oc2ncc(OC)c3ccc(Cl)cc23)[C@@H](C)[C@H]1C(=O)N[C@]1(C(=O)OCC)C[C@H]1C=C, Hoveyda-Grubbs catalyst, 1,2-dichloroethane, 0.8 mM, 12.0 h): 92%
COc1ccc2c(O[C@H]3CN4C(=O)[C@@H](NC(=O)OC(C)(C)C)CCCCCC=C[C@@H]5C[C@@]5(C(=O)NS(=O)(=O)C5(C)CC5)NC(=O)[C@@H]4C3(C)C)cc(-c3nc(C(C)C)cs3)nc2c1C | – | – | ring closure, yield of all isomers ([1]; from C=CCCCCC[C@H](NC(=O)OC(C)(C)C)C(=O)N1C[C@H](Oc2cc(-c3nc(C(C)C)cs3)nc3c(C)c(OC)ccc23)C(C)(C)[C@H]1C(=O)N[C@]1(C(=O)NS(=O)(=O)C2(C)CC2)C[C@H]1C=C, Zhan catalyst, toluene, 5.9 mM, 65.0 °C, 1.33 h): 56%
COc1ccc2c(O[C@H]3CN4C(=O)[C@@H](NC(=O)OC(C)(C)C)CCCCCC=C[C@@H]5C[C@@]5(C(=O)NS(=O)(=O)C5(C)CC5)NC(=O)[C@@H]4[C@@H]3C)cc(-c3nc(C(C)C)cs3)nc2c1C | – | – | ring closure, yield of all isomers ([1]; from C=CCCCCC[C@H](NC(=O)OC(C)(C)C)C(=O)N1C[C@H](Oc2cc(-c3nc(C(C)C)cs3)nc3c(C)c(OC)ccc23)[C@@H](C)[C@H]1C(=O)N[C@]1(C(=O)NS(=O)(=O)C2(C)CC2)C[C@H]1C=C, Zhan catalyst, toluene, 5.9 mM, 65.0 °C, 0.5 h): 68%
COc1ccc2c(O[C@H]3CN4C(=O)[C@@H](NC(=O)OC(C)(C)C)CCCCCC=C[C@@H]5C[C@@]5(C(=O)NS(=O)(=O)C5(C)CC5)NC(=O)[C@@H]4[C@H]3C)cc(-c3nc(C(C)C)cs3)nc2c1C | – | – | ring closure, yield of all isomers ([1]; from C=CCCCCC[C@H](NC(=O)OC(C)(C)C)C(=O)N1C[C@H](Oc2cc(-c3nc(C(C)C)cs3)nc3c(C)c(OC)ccc23)[C@H](C)[C@H]1C(=O)N[C@]1(C(=O)NS(=O)(=O)C2(C)CC2)C[C@H]1C=C, Zhan catalyst, 70.0 °C, 0.5 h): 59%
COc1ccc2c(O[C@H]3CN4C(=O)[C@@H](NC(=O)OC(C)(C)C)CCCCC/C=C\[C@@H]5C[C@@]5(C(=O)NS(=O)(=O)C5(C)CC5)NC(=O)[C@@H]4C3(C)C)cc(-c3nc(C(C)C)cs3)nc2c1C [Compound 101] | > 0.1 µM | 0.01 to 0.1 µM | –
COc1ccc2c(O[C@H]3CN4C(=O)[C@@H](NC(=O)OC(C)(C)C)CCCCC/C=C\[C@@H]5C[C@@]5(C(=O)NS(=O)(=O)C5(C)CC5)NC(=O)[C@@H]4[C@@H]3C)cc(-c3nc(C(C)C)cs3)nc2c1C [Compound 102] | < 0.01 µM | < 0.01 µM | –
COc1ccc2c(O[C@H]3CN4C(=O)[C@@H](NC(=O)OC(C)(C)C)CCCCC/C=C\[C@@H]5C[C@@]5(C(=O)NS(=O)(=O)C5CC5)NC(=O)[C@@H]4[C@@H]3C)cc(-c3nc(C(C)C)cs3)nc2c1C [Compound 103] | < 0.01 µM | < 0.01 µM | –
COc1ccc2c(O[C@H]3CN4C(=O)[C@@H](N)CCCCC/C=C\[C@@H]5C[C@@]5(C(=O)NS(=O)(=O)C5(C)CC5)NC(=O)[C@@H]4[C@@H]3C)cc(-c3nc(C(C)C)cs3)nc2c1C [Compound 104] | 0.01 to 0.1 µM | < 0.01 µM | –
COc1ccc2c(O[C@H]3CN4C(=O)[C@@H](NC(=O)OC(C)(C)C)CCCCC/C=C\[C@@H]5C[C@@]5(C(=O)NS(=O)(=O)C5(C)CC5)NC(=O)[C@@H]4[C@H]3C)cc(-c3nc(C(C)C)cs3)nc2c1C [Compound 106] | > 0.1 µM | 0.01 to 0.1 µM | –
CC(C)n1c(O[C@H]2CN3C(=O)[C@@H](NC(=O)OC(C)(C)C)CCCCC/C=C\[C@@H]4C[C@@]4(C(=O)NS(=O)(=O)C4(C)CC4)NC(=O)[C@@H]3[C@@H]2C)nc2c(-c3nc(C4CCCCC4)cs3)cccc21 [Compound 107] | 0.01 to 0.1 µM | < 0.01 µM | –
CC(C)n1c(O[C@H]2CN3C(=O)[C@@H](NC(=O)OC(C)(C)C)CCCCC/C=C\[C@@H]4C[C@@]4(C(=O)NS(=O)(=O)C4CC4)NC(=O)[C@@H]3[C@@H]2C)nc2c(-c3nc(C4CCCCC4)cs3)cccc21 [Compound 109] | 0.01 to 0.1 µM | < 0.01 µM | –
COc1cnc(O[C@H]2CN3C(=O)[C@@H](NC(=O)OC(C)(C)C)CCCCC/C=C\[C@@H]4C[C@@]4(C(=O)O)NC(=O)[C@@H]3[C@@H]2C)c2cc(Cl)ccc12 [Compound 110] | > 0.1 µM | < 0.01 µM | –
COc1cnc(O[C@H]2CN3C(=O)[C@@H](NC(=O)OC(C)(C)C)CCCCC/C=C\[C@@H]4C[C@@]4(C(=O)NS(=O)(=O)C4(C)CC4)NC(=O)[C@@H]3[C@@H]2C)c2cc(Cl)ccc12 [Compound 111] | < 0.01 µM | < 0.01 µM | –
C=C[C@@H]1C[C@]1(NC(=O)[C@H]1N(C(=O)C(NC(=O)OC(C)(C)C)C(C)(C)C)C[C@H](Oc2cc(-c3nc(C(C)C)cs3)nc3c(C)c(OC)ccc23)C1(C)C)C(=O)NS(=O)(=O)C1(C)CC1 (some centres unmarked) [Compound 202] | > 0.1 µM | > 0.1 µM | –
C=C[C@@H]1C[C@]1(NC(=O)[C@@H]1[C@H](C)[C@@H](Oc2cc(-c3nc(C(C)C)cs3)nc3c(C)c(OC)ccc23)CN1C(=O)C(N)C(C)(C)C)C(=O)NS(=O)(=O)C1(C)CC1 (some centres unmarked) [Compound 203] | 0.01 to 0.1 µM | < 0.01 µM | –
C=C[C@@H]1C[C@]1(NC(=O)[C@@H]1[C@H](C)[C@@H](Oc2cc(-c3nc(C(C)C)cs3)nc3c(C)c(OC)ccc23)CN1C(=O)[C@@H](NC(=O)OC(C)(C)C)C(C)(C)C)C(=O)NS(=O)(=O)C1(C)CC1 [Compound 204] | < 0.01 µM | < 0.01 µM | –
C=C[C@@H]1C[C@]1(NC(=O)[C@@H]1[C@H](C)[C@@H](Oc2cc(-c3nc(C(C)C)cs3)nc3c(C)c(OC)ccc23)CN1C(=O)[C@@H](NC(=O)OC(C)(C)C)C(C)(C)C)C(=O)NS(=O)(=O)C1CC1 [Compound 205] | < 0.01 µM | < 0.01 µM | –
C=C[C@@H]1C[C@]1(NC(=O)[C@@H]1[C@H](C)[C@@H](Oc2cc(-c3nc(C(C)C)cs3)nc3c(C)c(OC)ccc23)CN1C(=O)[C@@H](N)C(C)(C)C)C(=O)NS(=O)(=O)C1CC1 [Compound 207] | > 0.1 µM | < 0.01 µM | –
C=C[C@@H]1C[C@]1(NC(=O)[C@@H]1[C@@H](C)[C@@H](Oc2cc(-c3nc(C(C)C)cs3)nc3c(C)c(OC)ccc23)CN1C(=O)[C@@H](NC(=O)OC(C)(C)C)C(C)(C)C)C(=O)NS(=O)(=O)C1(C)CC1 [Compound 208] | – | 0.01 to 0.1 µM | EC50 (hepatitis C replicon): > 0.1 µM
C=C[C@@H]1C[C@]1(NC(=O)[C@@H]1[C@H](C)[C@@H](Oc2cc(-c3nc(C(C)C)cs3)nc3c(C)c(OC)ccc23)CN1C(=O)[C@@H](Nc1cccc(C(F)(F)F)c1)C(C)(C)C)C(=O)NS(=O)(=O)C1(C)CC1 [Compound 209] | 0.01 to 0.1 µM | < 0.01 µM | –
C=C[C@@H]1C[C@]1(NC(=O)[C@@H]1[C@H](C)[C@@H](Oc2ncc(OC)c3ccc(Cl)cc23)CN1C(=O)[C@@H](NC(=O)OC(C)(C)C)C(C)(C)C)C(=O)O [Compound 210] | > 0.1 µM | 0.01 to 0.1 µM | –
C=C[C@@H]1C[C@]1(NC(=O)[C@@H]1[C@H](C)[C@@H](Oc2ncc(OC)c3ccc(Cl)cc23)CN1C(=O)[C@@H](NC(=O)OC(C)(C)C)C(C)(C)C)C(=O)NS(=O)(=O)C1(C)CC1 [Compound 211] | < 0.01 µM | < 0.01 µM | –
C=C[C@@H]1C[C@]1(NC(=O)[C@@H]1[C@@H](C)[C@@H](Oc2cc(-c3nc(C(C)C)cs3)nc3c(C)c(OC)ccc23)CN1C(=O)[C@@H](N)C(C)(C)C)C(=O)NS(=O)(=O)C1(C)CC1 [Compound 212] | – | > 0.1 µM | –
